From patent US9359409B2, “Antimicrobial peptides, compositions comprising the same and uses thereof” (priority 2012, dated 2016)
Where two headings read alike, the source gives them in different places. Ends that are not written are not given here.

Experiments:
Escherichia coli = system: Escherichia coli
Procedure: (§1) The 5 designed and synthesized peptides of the invention, plus omiganan (peptide of the state of the art) were evaluated for their antimicrobial capacity in microdilution assays for determining the minimum inhibitory concentration (MIC). A first panel of 8 representative strains was analyzed in these assays, encompassing Gram positive and Gram negative bacteria. […] The lowest MIC values indicate a higher antimicrobial potency.
(§2) Subsequently, an analysis of a panel of clinical isolates including strains with different resistance mechanisms against conventional antibiotics was carried out, all of which are of clinical relevance. […] In Table 3 the results for a panel of Gram negative bacteria are shown, and in Table 4 for a panel of […] bacteria. In these tables the detected gene/s responsible for the resistance against antibiotics for each strain, are included.
(§3) Antimicrobial activity was analyzed by means of the determination of the MIC (minimum inhibitory concentration) by the microdilution technique. The technique was carried out in the standard fashion according to (CLSI M07-A9 Vol. 32 No 2. January 2012). The peptide concentration range used was from 0.5 μg/mL to 512 μg/mL in two-fold serial dilutions. The used medium was MH Difco broth supplemented with cations, at a final concentration of Ca^++20-25 mg/L and Mg^++10-12.5 mg/L. The working inoculum used corresponds to a 1/100 dilution of a bacterial suspension equivalent to 0.5 in the Mc Farland scale.

Klebsiella pneumoniae = system: Klebsiella pneumoniae
Procedure: as §1, §2, §3

S. warnerii = type: cell-based
Procedure: (§4) In vitro sensitivity assay of aerobically growing bacteria, using the disc diffusion method was performed according to the standards in the M2 document of the CLSI (Clinical and Laboratory Standards Institute: Performance Standards for Antimicrobial Disk Susceptibility Tests.) using the non-amidated peptides
(§5) In brief, intermediate solutions (10×) of the antimicrobial non-amidated peptides were prepared by serial dilutions 1:2, 1:4 and 1:8 by two-fold dilutions. Then, one part of the solution of the antimicrobial peptide 10× was added to nine parts of melted bacteriological agar. The antibiotic solution was added for each dilution, in the melted agar and cooled to 45-50° C. in a water bath. Then, the agar-antibiotic mixture was placed in a Petri dish until a 3-4 mm depth was reached. The inoculum is prepared with a turbidity of 0.5 in the McFarland scale (approximately 1-2 10^8 CFU/ml). The final inoculum required for the agar dilution test is 10^4 colony forming units (CFU) per “spot” having 5-8 mm in diameter. The inoculated plates must be incubated upside down at 35° C. for a period of 16-20 hs. MIC was recorded as the value of the lower dilution completely inhibiting bacterial development, without considering the development of a single colony or a slight film caused by the inoculum deposit. The final point in these cases will correspond to the concentration at which there is more than 80% reduction in growth as compared with the control.

S. cohnii = type: cell-based
Procedure: as §4, §5

E. coli = type: cell-based; details: non-amidated peptides; E. coli ATCC 25922, WT
Procedure: as §4, §5

K. pneumoniae = type: cell-based; details: non-amidated peptides; K. pneumoniae M13540, KPC
Procedure: as §4, §5

S. aureus = type: cell-based; details: non-amidated peptides
Procedure: as §4, §5

P. aeruginosa = type: cell-based
Procedure: as §4, §5

Pseudomonas aeruginosa = assay: MIC by broth microdilution; type: cell-based
Procedure: as §1, §2, §3

Staphylococcus aureus = assay: MIC by broth microdilution; type: cell-based
Procedure: as §1, §2, §3

E. gallinarum = system: E. gallinarum
Procedure: as §2, §3

A. baumanii = system: A. baumanii
Procedure: as §2, §3

S. saprophyticus = system: S. saprophyticus
Procedure: as §2, §3

S. hominis = system: S. hominis
Procedure: as §2, §3

S. haemolyticus = system: S. haemolyticus
Procedure: as §2, §3

E. raffinosus = E. raffinosus M6187, resistance gene vanA
Procedure: as §2, §3

A. junii = A. junii M9013, resistance gene oxa-51 + imp
Procedure: as §2, §3

human erythrocytes = assay: Erythrocyte hemolysis assay (cytotoxicity); type: cell-based; details: peptide 128 ug/ml
Procedure: Subsequently, the capacity of the peptides of the invention for lysing human erythrocytes was evaluated, as a measure of their cytotoxicity (Table 2). The assays were carried out according to the Examples and are expressed as a percentage of total lysis obtained with either water or the surfactant Tween 20. In this assays, the lower hemolysis percentage, the lower expected cytotoxic activity.
Evaluation of cytotoxic activity was performed by means of an erythrocyte hemolysis assay (according to Pure Appl. Chem., Vol. 79, No. 4, pp. 717-728, 2007). In brief, from a volume of heparinized human whole blood, 3 times that volume of PBS is added and centrifuged 10 minutes at 1500 rpm, repeating the washing two more times. 10% blood solutions in PBS were prepared with that pellet. Subsequently, each group was added the corresponding peptide at the indicated concentration and incubated at 37° C. for 30 minutes. […]

ILRWPWWPWRRK-NH2 [Omiganan, ILRWPWWPWRRK, reference compound]
256 µg/mL: MIC (Klebsiella pneumoniae; K. Pneumoniae M9885, resistance gene kpc) | MIC (Klebsiella pneumoniae; K. pneumoniae M13540, resistance gene kpc) | MIC (Pseudomonas aeruginosa; P. aeruginosa M5109, resistance gene vim) | MIC (Pseudomonas aeruginosa; P. aeruginosa M7723, resistance gene kpc) | MIC (Pseudomonas aeruginosa; P. aeruginosa M13513, resistance gene kpc)
11.6%: Hemolysis % (1% Tween20) (human erythrocytes; percentage of total lysis obtained with 1% Tween20)
4 µg/mL: MIC (S. hominis) | MIC (S. haemolyticus) | MIC (E. raffinosus)
10%: Hemolysis % (water) (human erythrocytes; percentage of total lysis obtained with water)
>128 µg/mL: MIC in agar dilution (E. coli) | MIC in agar dilution (K. pneumoniae) | MIC in agar dilution (S. aureus; S. aureus ATCC29213, MSSA) | MIC in agar dilution (S. aureus; S. aureus M6794, MRSA) | MIC in agar dilution (P. aeruginosa) | MIC in agar dilution (P. aeruginosa; non-amidated peptides, P. aeruginosa M13513, KPC)
0.171: OD 540 nm (human erythrocytes; supernatant of human erythrocytes, 37° C., 30 minutes)
8 µg/mL: MIC (S. saprophyticus)
64 µg/mL: MIC (Escherichia coli; E. coli ABC11, resistance gene ctx-m-2) | MIC (Escherichia coli; E. coli Cos15, resistance gene per + tem) | MIC (Escherichia coli; E. coli LCA1, resistance gene ctx-m-2 + tem-1) | MIC (Escherichia coli; E. coli M5306, resistance gene ctx-m-2 + tem-1 + per-2) | MIC (Escherichia coli; E. coli M7859, resistance gene cit) | MIC (Escherichia coli; E. coli M9209, resistance gene kpc) | MIC (Staphylococcus aureus; S. aureus 204, resistance gene ermA) | MIC (Staphylococcus aureus; S. aureus M2832, resistance gene mecA) | MIC (A. baumanii; A. baumanii FAV-1, resistance gene per + oxa-51 + oxa-58) | MIC (A. baumanii; A. baumanii M5179, resistance gene oxa-51) | MIC (A. baumanii; A. baumanii M7978, resistance gene imp) | MIC (A. baumanii; A. baumanii M9665, resistance gene oxa-51) | MIC (A. baumanii; A. baumanii M13523, resistance gene oxa-51) | MIC (A. junii)
16 µg/mL: MIC in agar dilution (S. warnerii) | MIC in agar dilution (S. cohnii) | MIC (E. gallinarum; E. gallinarum M2685, resistance gene vanC1 + vanA) | MIC (E. gallinarum; E. gallinarum M2723, resistance gene vanC1 + vanA) | MIC (A. baumanii; A. baumanii M5282, resistance gene oxa-51)
32 µg/mL: MIC (Escherichia coli; E. coli NEU23, resistance gene oxa-GIII + tem) | MIC (Staphylococcus aureus; S. aureus 28, resistance gene ermA) | MIC (Staphylococcus aureus; S. aureus 33, resistance gene msrA) | MIC (Staphylococcus aureus; S. aureus 239, resistance gene ermC) | MIC (Staphylococcus aureus; S. aureus M4046, resistance gene mecA) | MIC (Staphylococcus aureus; S. aureus M6276, resistance gene ermA + lnuA) | MIC (Staphylococcus aureus; S. aureus M6784, resistance gene mecA) | MIC (A. baumanii; A. baumanii M5277, resistance gene per) | MIC (A. baumanii; A. baumanii M7489, resistance gene oxa-51 + tem)
128 µg/mL: MIC (Klebsiella pneumoniae; K. pneumoniae M9170, resistance gene oxa-GIII) | MIC (Klebsiella pneumoniae; K. pneumoniae M9491, resistance gene mox) | MIC (Pseudomonas aeruginosa; P. aeruginosa M7907, resistance gene per) | MIC (Staphylococcus aureus; S. aureus M6820, resistance gene mecA)
